{"source": "patent US8236523B2", "about": "“Camp reporters and high throughput assays” (The Johns Hopkins University, priority 2004, dated 2012)", "format_in_all_cases": "cell-based", "key": {"[1]": {"system": "cAMP", "assay": "Dual-emission ratio (FRET) imaging of Epac-based cAMP reporters (ICUE1 and targeted fusions) in HEK-293 cells", "conditions": "for increase in the ratio of cyan to yellow emissions (FRET response): HEK293 cells expressing ICUE1, 10 μM ISO, 50 μM FSK, 10 μM PGE1, 300 μM 8-pCPT-2′-O-Me-cAMP, average ± S.E.M; for increase in emission ratio of cyan to yellow upon cAMP elevations: ECFP/citrine reporters with truncated Epac2, HEK-293 cells", "method": "Cell Culture. […] Cells were then transfected with FuGENE-6 transfection reagent (Roche) or calcium phosphate and allowed to grow for 12-24 hours before imaging.\nImaging. Cells were washed twice with Hanks' balanced salt solution buffer after 12- to 24-h incubation at 37° C. culture medium. Cells were maintained in buffer in the dark at room temperature with addition of isoproterenol (Aldrich), forskolin (Calbiochem), Prostaglandin E1 (PGE1) (Sigma), and 8-(4-chloro-phenylthio)-2′-O-methyl adenosine 3′,5′-monophosphate (8-pCPT-2′-O-Me-cAMP) (Axxora Biolog) as indicated. Cells were also treated with P-(4,5-dimethoxy-2-nitrobenzyl) adenosine 3′,5′-monophosphate (DMNB-cAMP) (Molecular Probe).\nCells were imaged on a Zeiss Axiovert 200M microscope with a cooled charge-coupled device camera MicroMAX BFT512 (Roper Scientific) controlled by METAFLUOR 6.2 software (Universal Imaging). Dual-emission ratio imaging used a 420DF20 excitation filter, a 450DRLP dichroic mirror and two emission filters (475DF40 for ECFP, 535DF25 for citrine) alternated by a filter changer Lambda 10-2 (Sutter Instruments). Exposure time was 100-500 ms and images were taken every 8-30 s. Fluorescent images were background-corrected by subtracting autofluorescence intensities of untransfected cells (or background with no cells) from the emission intensities of fluorescent cells expressing reporters. The ratios of cyan to yellow emissions were then calculated at different time points and normalized by dividing all ratios by the emission ratio just prior to stimulation therefore setting the basal emission ratio to 1."}, "[2]": {"system": "cAMP", "assay": "96-well live cell plate reading of HEK293 cells expressing ICUE3", "conditions": "for effect on ISO-stimulated response of ICUE3: PRO 10 μM", "method": "Plate reading used a 420DF20 excitation filter and two emission filters (470DF40 for cyan and 535DF25 for yellow). A baseline was established in three cycles, each consisting of a full plate reading of yellow intensity, followed by a reading of cyan intensity. Cells were then treated with isoproterenol (ISO; Aldrich), forskolin (Calbiochem), H89, propranolol, and 3-isobutyl-1-methylxanthine (IBMX) as indicated. Readings were taken in six or twenty additional cycles. Each cycle lasted 60 to 145 sec. Baseline FRET ratios were calculated as the average ratio of yellow/cyan for each well before the addition of drug. FRET change was calculated as the percent increase of FRET ratio over baseline for each well during a given cycle. The FRET changes of all wells having undergone the same drug treatment were then averaged within each cycle, and that cycle was correlated with time.\nLive cell plate reading. HEK293 cells were transfected with cDNA encoding ICUE reporters using calcium phosphate at 40% confluency and allowed to grow for 40 hours. Cells were then trypsinized and plated in a Costar 3603 96-well assay plate (Coming) at a density of 150,000 cells per well. After incubation for another 24 hours, cells were washed once with HBSS and left in 150 μl HBSS at 20-25° C. Fluorescence reading was taken on a FLUOstar OPTIMA fluorescence microplate reader (BMG Labtechnologies Inc.) using a 420DF20 excitation filter and two emission filters (470DF40 for cyan and […] for yellow). A baseline was established in three cycles, each consisting of a full plate reading of yellow intensity, followed by a reading of cyan intensity. Each cycle lasted between 64 and 145 seconds. Readings were taken in additional cycles. FRET change was calculated as the percent increase of emission ratios (cyan-to-yellow) over baseline for each well during a given cycle. To assess the efficacy of the assay, several statistical parameters were calculated, including Z factor, coefficient of variation, and signal-to-noise ratio (Zhang et al., J. Biomol. Screen. 4, 67-73, 1999)."}, "[3]": {"system": "cAMP", "assay": "High throughput 96-well plate assay using ICUE2 stable HEK293 cells", "conditions": "1 μM ISO, 100 μM IBMX, 50 μM FSK", "method": "HEK293 cells which stably express ICUE2 (“ICUE2 stable HEK293 cells”) were grown to confluency in 10 cm dishes in DMEM, 10% FBS, 1% penicillin/streptomycin, and 250 μg/ml G418. HEK-293 cells were transfected with cDNA encoding ICUE2 using calcium phosphate at 40% confluency and allowed to grow for 40 hours. Cells were removed from the dish using 0.05% trypsin, spun down, and replaced with fresh media. ICUE2 stable HEK293 cells were counted on a hemocytometer using trypan blue stain. One hundred fifty thousand (150,000) cells were plated per well on a 96-well clear bottom assay plate in a total of 0.2 ml of media per […] and allowed to double once. Media was removed, cells were washed with Hanks buffered salt solution (HBSS) and then covered with 0.05 ml of HBSS per well. In a separate sterile plate, appropriate drugs were added to each well containing HBSS for a total volume of 0.05 ml. […] A baseline was established in three cycles, each consisting of a full plate reading of yellow intensity, followed by a reading of cyan intensity. Cells were then treated with isoproterenol (ISO; […] Readings were taken in six or twenty additional cycles. […] Baseline FRET ratios were calculated as the average ratio of yellow/cyan for each well before the addition of drug. FRET change was calculated as the percent increase of FRET ratio over baseline for each well during a given cycle. The FRET changes of all wells having undergone the same drug treatment were then averaged within each cycle, and that cycle was correlated with time."}, "[4]": {"conditions": "50 μM FSK, 10 μM PRO, 10 μM H89"}, "[5]": {"conditions": "plasma membrane-targeted ICUE1, 10 μM PGE1"}, "[6]": {"conditions": "ICUE1, 10 μM propranolol added after isoproterenol response reached plateau"}}, "note": "Entries after “also recorded” stand apart in the source; their conditions may differ."}
{"molecule": "COc1cc(COP2(=O)OCC3OC(n4cnc5c(N)ncnc54)C(O)C3O2)c([N+](=O)[O-])cc1OC", "note": "(stereo not drawn) [DMNB-cAMP, P-(4,5-dimethoxy-2-nitrobenzyl) adenosine 3′,5′-monophosphate]", "values": [{"measurement": "increase of emission ratio after UV uncaging", "setting": "[1]; ICUE1, 100 μM DMNB-cAMP for 3 minutes, UV flash of 5 seconds", "result": "4.7%±0.7"}, {"measurement": "time of emission ratio increase after UV uncaging", "setting": "[1]; ICUE1, 100 μM DMNB-cAMP, UV flash of 5 seconds", "result": "15 to 30", "unit": "s"}]}
{"molecule": "O=S(=O)(NCCNC/C=C/c1ccc(Br)cc1)c1cccc2cnccc12", "note": "[H89]", "values": [{"measurement": "effect on FSK-stimulated response of ICUE3", "setting": "[2]; [4]", "result": "did not diminish the response of ICUE3; also recorded: appeared to increase the response amplitude"}]}
{"molecule": "CCCCC[C@H](O)/C=C/[C@H]1[C@H](O)CC(=O)[C@@H]1CCCCCCC(=O)O", "note": "[PGE1, Prostaglandin E1]", "values": [{"measurement": "increase in the ratio of cyan to yellow emissions (FRET response)", "setting": "[1]", "result": "13.3%±0.9"}, {"measurement": "FRET response in the nucleus", "setting": "[1]; NLS-ICUE1, 10 μM PGE1", "result": "3.4%±0.4"}, {"measurement": "emission ratio increase at the plasma membrane", "setting": "[1]; [5]", "result": "12.6%±0.9"}, {"measurement": "time of emission ratio increase at the plasma membrane", "setting": "[1]; [5]", "result": "2 to 3", "unit": "min"}]}
{"molecule": "CO[C@@H]1[C@@H]2OP(=O)(O)OC[C@H]2O[C@H]1n1c(Sc2ccc(Cl)cc2)nc2c(N)ncnc21", "note": "[8-pCPT-2′-O-Me-cAMP, 8-(4-chloro-phenylthio)-2′-O-methyl adenosine 3′,5′-monophosphate]", "values": [{"measurement": "increase in the ratio of cyan to yellow emissions (FRET response)", "setting": "[1]", "result": "12.8%±0.9"}, {"measurement": "time to produce a half-maximal increase in emission ratios (t1/2)", "setting": "[1]; ICUE1, 300 μM", "result": "10 to 15", "unit": "min"}]}
{"molecule": "CC(C)NCC(O)COc1cccc2ccccc12", "note": "(stereo not drawn) [propranolol]", "values": [{"measurement": "effect on isoproterenol-stimulated FRET response", "setting": "[1]; ICUE1, HEK293 cells, propranolol present", "result": "prevented the isoproterenol-stimulated response"}, {"measurement": "time of full recovery of emission ratio", "setting": "[1]; [6]", "result": "6 to 8", "unit": "min"}, {"measurement": "time of initial decrease in emission ratio of cyan to yellow", "setting": "[1]; [6]", "result": "2 to 3", "unit": "min"}, {"measurement": "Average percent FRET response ± standard deviation, 0 sec.", "setting": "[2]; 0 sec., HEK293 cells expressing ICUE3, 1 μM ISO, 50 μM FSK, 10 μM PRO, 100 μM IBMX, 10 μM H89", "result": "7.61% ± 3.19%"}, {"measurement": "effect on ISO-stimulated response of ICUE3", "setting": "[2]; 1 μM ISO, 100 μM IBMX", "result": "inhibited"}, {"measurement": "effect on FSK-stimulated response of ICUE3", "setting": "[2]; [4]", "result": "had no effect"}, {"measurement": "Average percent FRET response ± standard deviation, 145 sec.", "setting": "[2]; 145 sec., HEK293 cells expressing ICUE3, 1 μM ISO, 50 μM FSK, 10 μM PRO, 100 μM IBMX, 10 μM H89", "result": "8.1% ± 1.38%"}, {"measurement": "Average percent FRET response ± standard deviation, 290 sec.", "setting": "[2]; 290 sec., HEK293 cells expressing ICUE3, 1 μM ISO, 50 μM FSK, 10 μM PRO, 100 μM IBMX, 10 μM H89", "result": "6.54% ± 1.37%"}, {"measurement": "Average percent FRET response ± standard deviation, 435 sec.", "setting": "[2]; 435 sec., HEK293 cells expressing ICUE3, 1 μM ISO, 50 μM FSK, 10 μM PRO, 100 μM IBMX, 10 μM H89", "result": "3.73% ± 0.911%"}, {"measurement": "Average percent FRET response ± standard deviation, 580 sec.", "setting": "[2]; 580 sec., HEK293 cells expressing ICUE3, 1 μM ISO, 50 μM FSK, 10 μM PRO, 100 μM IBMX, 10 μM H89", "result": "2.57% ± 1.33%"}, {"measurement": "Average percent FRET response ± standard deviation, 725 sec.", "setting": "[2]; 725 sec., HEK293 cells expressing ICUE3, 1 μM ISO, 50 μM FSK, 10 μM PRO, 100 μM IBMX, 10 μM H89", "result": "1.83% ± 1.06%"}]}
{"molecule": "CC(C)Cn1c(=O)n(C)c(=O)c2[nH]cnc21", "note": "[IBMX, 3-isobutyl-1-methylxanthine]", "values": [{"measurement": "effect on ISO-stimulated response of ICUE3", "setting": "[2]; 1 μM ISO, 100 μM IBMX", "result": "sustained the response and increased its amplitude"}, {"measurement": "character of ICUE2 response (in words)", "setting": "[3]", "result": "increased the amplitude and sustained the responses"}]}
{"molecule": "T316-A501: ECFP/citrine reporter with Epac2 amino acids 316-501 of SEQ ID NO:20 (protein, listed as Mus musculus, fused between ECFP and citrine) MLLLSQMGPDAHMRMILRKPPGQRTVDDLEIIYDELLHIKALSHLSTTVKRELAGVLIFESHAKGGTVLFNQGEEGTSWYIILKGSVNVVIYGKGVVCTLHEGDDFGKLALVNDAPRAASIVLREDNCHFLRVDKEDFNRILRDVEANTVRLKEHDQDVLVLEKVPAGNRAANQGNSQPQQKYTVM", "values": [{"measurement": "increase in emission ratio of cyan to yellow upon cAMP elevations", "setting": "[1]", "result": 5, "unit": "%"}]}
{"molecule": "P350-A501: ECFP and citrine fused with Epac2 domain, amino acids 350-501 of SEQ ID NO:20 (protein, listed as Mus musculus, fused between ECFP and citrine) ELLHIKALSHLSTTVKRELAGVLIFESHAKGGTVLFNQGEEGTSWYIILKGSVNVVIYGKGVVCTLHEGDDFGKLALVNDAPRAASIVLREDNCHFLRVDKEDFNRILRDVEANTVRLKEHDQDVLVLEKVPAGNRAANQGNSQPQQKYTVM", "values": [{"measurement": "increase in emission ratio of cyan to yellow upon cAMP elevations", "setting": "[1]", "result": "did not show a cAMP-dependent FRET change"}]}
